Measurements as given in ChEMBL document CHEMBL1135837, “Approach to dual-acting platelet activating factor (PAF) receptor antagonist/thromboxane synthase inhibitor (TxSI) based on the link of PAF antagonists and TxSIs” (Bioorg Med Chem Lett, 2002).

Experiments:
Type in all cases: functional
Oryctolagus cuniculus = organism: Oryctolagus cuniculus; test: In vitro inhibition of platelet activating factor induced platelet aggregation in rabbit platelet rich plasma.
Thromboxane-A synthase = target: T1, Thromboxane-A synthase (Homo sapiens, UniProt P24557); test: In vitro inhibition of TXB2 production by incubating prostaglandin H2 with human platelet microsomes.
T1 sequence (P24557 whole entry): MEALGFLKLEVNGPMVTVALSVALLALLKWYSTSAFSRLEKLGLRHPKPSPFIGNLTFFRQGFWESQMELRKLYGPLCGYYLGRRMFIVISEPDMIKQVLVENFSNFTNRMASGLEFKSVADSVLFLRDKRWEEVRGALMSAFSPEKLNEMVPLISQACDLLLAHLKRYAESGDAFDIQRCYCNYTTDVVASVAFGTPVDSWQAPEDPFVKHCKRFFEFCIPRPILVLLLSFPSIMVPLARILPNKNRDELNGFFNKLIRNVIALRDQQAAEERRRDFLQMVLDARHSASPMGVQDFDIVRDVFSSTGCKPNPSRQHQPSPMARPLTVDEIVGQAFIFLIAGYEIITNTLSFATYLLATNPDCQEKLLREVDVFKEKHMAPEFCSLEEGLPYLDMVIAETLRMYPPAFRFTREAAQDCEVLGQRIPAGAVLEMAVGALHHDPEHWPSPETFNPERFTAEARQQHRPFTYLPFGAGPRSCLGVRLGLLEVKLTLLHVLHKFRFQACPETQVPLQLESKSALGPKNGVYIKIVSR

Mus musculus = organism: Mus musculus; test: Ex vivo antagonistic activity towards platelet activating factor was assessed in mouse by using PAF-induced death assay

Structure (SMILES) | IC50 (Oryctolagus cuniculus) [µM] | IC50 (Thromboxane-A synthase) [µM] | ED50 (Mus musculus) [mg/kg]
CCOC(=O)CCCCO/N=C(/c1cccnc1)c1ccccc1C(=O)N1CCN(C(=O)C2CSC(c3cccnc3)N2)CC1 (stereo not given) | 0.56 | > 1 | 
CCOC(=O)CCCCO/N=C(\c1cccnc1)c1cccc(CN2CCN(C(=O)C3CSC(c4cccnc4)N3)CC2)c1 (stereo not given) | 0.2 | 0.088 | 
CCOC(=O)CCCCO/N=C(\c1ccc(NC(=O)C2CSC(c3cccnc3)N2)cc1)c1cccnc1 (stereo not given) | > 1 | 0.021 | 
CCOC(=O)CCCCO/N=C(\c1cccnc1)c1cccc(NC(=O)c2ccn3c2CSC3c2cccnc2)c1 (stereo not given) | 0.45 | 0.0012 | 
CCOC(=O)CCCCO/N=C(/c1cccnc1)c1cccc(CNS(=O)(=O)c2ccc(Cn3c(C)nc4cnccc43)cc2)c1 | 0.068 | 0.0047 | 
CCOC(=O)CCCCO/N=C(/c1ccccc1)c1cccnc1 |  | 0.001 | 
Cc1nc2cnccc2n1Cc1ccc(S(=O)(=O)NCc2cccc(/C(=N\OCCCCC(=O)O)c3cccnc3)c2)cc1 | > 1 | 0.0018 | 
CCOC(=O)CCCCO/N=C(/c1cccnc1)c1cccc(C(=O)N2CCN(C(=O)C3CSC(c4cccnc4)N3)CC2)c1 (stereo not given) | 0.48 | 0.052 | 
CCOC(=O)CCCCO/N=C(\c1cccnc1)c1cccc(CNS(=O)(=O)c2ccc(Cn3c(C)nc4cnccc43)cc2)c1 | 0.068 | 0.0058 | 
CCOC(=O)CCCCO/N=C(\c1ccc(NC(=O)c2ccn3c2CSC3c2cccnc2)cc1)c1cccnc1 (stereo not given) | 0.55 | 0.0036 | 
CCOC(=O)C1=C(c2ccc(-n3c(C)nc4cnccc43)cc2)NC(C)=C(C(=O)Nc2ccccn2)C1c1ccccc1Cl (stereo not given) | 0.029 |  | 
CCOC(=O)CCCCO/N=C(/c1cccnc1)c1cccc(C(=O)N2CCc3c(sc4c3C(c3ccccc3Cl)=NC(C)c3nnc(C)n3-4)C2)c1 (stereo not given) | 0.06 | 0.065 | 2.3
CCOC(=O)CCCCO/N=C(\c1ccc(CN2CCN(C(=O)C3CSC(c4cccnc4)N3)CC2)cc1)c1cccnc1 (stereo not given) | 0.28 | 0.072 | 
O=C(O)CCCCO/N=C(\c1cccnc1)c1cccc(CN2CCN(C(=O)C3CSC(c4cccnc4)N3)CC2)c1 (stereo not given) | > 1 | 0.012 | 
CCOC(=O)CCCCO/N=C(\c1ccc(C(=O)N2CCc3c(sc4c3C(c3ccccc3Cl)=NC(C)c3nnc(C)n3-4)C2)cc1)c1cccnc1 (stereo not given) | 0.1 | 0.072 | 0.5
CCOC(=O)CCCCO/N=C(\c1cccnc1)c1cccc(NC(=O)C2CSC(c3cccnc3)N2)c1 (stereo not given) | > 1 | 0.021 | 
CCOC(=O)CCCCO/N=C(\c1ccc(C(=O)N2CCN(C(=O)C3CSC(c4cccnc4)N3)CC2)cc1)c1cccnc1 (stereo not given) | 0.61 | 0.044 | 
Cc1nnc2n1-c1sc3c(c1C(c1ccccc1Cl)=N[C@H]2C)CCN(C(=O)C1CC1)C3 (racemic) | 0.36 |  | 
